In ChEMBL document CHEMBL1201862, “PubChem BioAssay data set” (2004):
Where a name gives a salt, the structure may show the parent alone.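 Results reflect a 48-hour exposure of cells in 96-well plates to compound at five concentrations. GI50 = concentration required for 50% inhibition of growth.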 Active and inactive are the calls of the source. Cut-off read from the data, not from the text of the source: active = GI50 up to about 1.1 µM and inactive = higher.

Columns and labels:
Assay in all cases: inhibition of tumour cell growth, NCI panel, 48 h
MDA-MB-231 = system: MDA-MB-231
U-251 = system: U-251
SR = system: SR
KM-20L2 = system: KM-20L2
KM12 = system: KM12
SK-OV-3 = system: SK-OV-3
MDA-N = system: MDA-N
T47D = system: T47D
HOP-92 = system: HOP-92
K562 = system: K562
HCC 2998 = system: HCC 2998
SK-MEL-2 = system: SK-MEL-2
Malme-3M = system: Malme-3M
HL-60 = system: HL-60
UO-31 = system: UO-31
SF-539 = system: SF-539
SK-MEL-5 = system: SK-MEL-5
COLO 205 = system: COLO 205
M19-MEL = system: M19-MEL
CCRF-CEM = system: CCRF-CEM
SF-295 = system: SF-295
UACC-62 = system: UACC-62
SNB-75 = system: SNB-75
HT-29 = system: HT-29
RXF 631 = system: RXF 631
RXF 393 = system: RXF 393
786-0 = system: 786-0
A498 = system: A498
OVCAR-8 = system: OVCAR-8
DMS-114 = system: DMS-114
SNB-19 = system: SNB-19
OVCAR-5 = system: OVCAR-5
M14 = system: M14
XF498 = system: XF498
Hs-578T = system: Hs-578T
NCI-H23 = system: NCI-H23
PC-3 = system: PC-3
HCT-15 = system: HCT-15
OVCAR-3 = system: OVCAR-3
HCT-116 = system: HCT-116
RPMI-8226 = system: RPMI-8226
LXFL 529 = system: LXFL 529
MOLT-4 = system: MOLT-4
A549 = system: A549
SN12C = system: SN12C
DMS-273 = system: DMS-273
DLD-1 = system: DLD-1
CAKI-1 = system: CAKI-1
SF-268 = system: SF-268
MCF7 = system: MCF7
DU-145 = system: DU-145
SK-MEL-28 = system: SK-MEL-28
MDA-MB-435 = system: MDA-MB-435
NCI-H522 = system: NCI-H522
HOP-62 = system: HOP-62
ACHN = system: ACHN
SNB-78 = system: SNB-78
NCI-H226 = system: NCI-H226
LOX IMVI = system: LOX IMVI
OVCAR-4 = system: OVCAR-4
UACC-257 = system: UACC-257
NCI-H460 = system: NCI-H460
EKVX = system: EKVX
IGROV-1 = system: IGROV-1
NCI/ADR-RES = system: NCI/ADR-RES
TK-10 = system: TK-10
SW-620 = system: SW-620
BT-549 = system: BT-549
HOP-18 = system: HOP-18

Measured: GI50

Cc1cc(C)c(-n2c(-c3ccc(Br)cc3)cs/c2=N\N=C2C=C(C(C)(C)C)C(=O)C(C(C)(C)C)=C2)c(C)c1
inactive: MDA-MB-231 55.3 µM | U-251 31.2 µM | SR > 100 µM | KM-20L2 > 100 µM | KM12 > 100 µM | SK-OV-3 > 72.9 µM | MDA-N > 100 µM | T47D > 100 µM | HOP-92 > 50.1 µM | K562 > 100 µM | HCC 2998 > 100 µM | SK-MEL-2 > 100 µM | Malme-3M > 100 µM | HL-60 > 100 µM | UO-31 > 100 µM | SF-539 > 69.3 µM | SK-MEL-5 > 100 µM | COLO 205 > 100 µM | M19-MEL > 100 µM | CCRF-CEM > 100 µM | SF-295 > 41.5 µM | UACC-62 > 81.1 µM | SNB-75 17.5 µM | HT-29 > 100 µM | RXF 631 > 100 µM | RXF 393 21.7 µM | 786-0 > 100 µM | A498 31.3 µM | OVCAR-8 > 100 µM | DMS-114 > 100 µM | SNB-19 76.2 µM | OVCAR-5 > 100 µM | M14 > 100 µM | XF498 29.9 µM | Hs-578T 15.3 µM | NCI-H23 > 100 µM | PC-3 > 100 µM | OVCAR-3 > 100 µM | HCT-116 > 76 µM | RPMI-8226 > 100 µM | LXFL 529 > 100 µM | MOLT-4 > 100 µM | A549 > 100 µM | SN12C > 100 µM | DMS-273 > 100 µM | DLD-1 > 100 µM | CAKI-1 > 100 µM | SF-268 69.8 µM | MCF7 > 100 µM | DU-145 > 100 µM | SK-MEL-28 > 100 µM | MDA-MB-435 > 100 µM | NCI-H522 > 100 µM | HOP-62 32.7 µM | ACHN > 100 µM | SNB-78 38.7 µM | NCI-H226 > 100 µM | LOX IMVI > 100 µM | OVCAR-4 > 100 µM | UACC-257 > 100 µM | NCI-H460 > 100 µM | EKVX > 100 µM | IGROV-1 > 63.7 µM | NCI/ADR-RES > 100 µM | TK-10 > 71.8 µM | SW-620 > 100 µM | BT-549 > 100 µM | HOP-18 > 100 µM
> 100 µM: HCT-15

[O-][S+]1c2ccccc2N=C(c2cccc3ccccc23)CC1c1cccc2ccccc12 (centres undefined)
active: SK-MEL-28 0.91 µM
inactive: U-251 18.6 µM | SR 24.1 µM | KM-20L2 36.3 µM | KM12 15.2 µM | SK-OV-3 32.9 µM | K562 30.8 µM | HCC 2998 17.2 µM | SK-MEL-2 17.5 µM | Malme-3M 22.9 µM | HL-60 10.8 µM | UO-31 23.9 µM | SF-539 19.5 µM | SK-MEL-5 5.52 µM | COLO 205 20.9 µM | M19-MEL 2.01 µM | CCRF-CEM 20.5 µM | SF-295 32.1 µM | UACC-62 12.6 µM | SNB-75 23.1 µM | HT-29 25.7 µM | RXF 631 36.4 µM | RXF 393 22.6 µM | 786-0 24.5 µM | A498 21.7 µM | OVCAR-8 18.9 µM | DMS-114 16.5 µM | SNB-19 21 µM | OVCAR-5 31.6 µM | M14 14.5 µM | XF498 20.6 µM | NCI-H23 20.3 µM | OVCAR-3 19.1 µM | HCT-116 17.3 µM | RPMI-8226 19.8 µM | LXFL 529 17.5 µM | MOLT-4 20.3 µM | A549 18.8 µM | SN12C 16.6 µM | DMS-273 29.6 µM | DLD-1 18.4 µM | CAKI-1 24.8 µM | SF-268 22.2 µM | NCI-H522 15 µM | HOP-62 34.2 µM | ACHN 23.1 µM | SNB-78 39 µM | NCI-H226 21.1 µM | LOX IMVI 13.6 µM | OVCAR-4 12.8 µM | UACC-257 17.1 µM | NCI-H460 15 µM | EKVX 21.4 µM | IGROV-1 15.1 µM | TK-10 31.2 µM | SW-620 17.7 µM | HOP-18 12.2 µM
15.1 µM: HCT-15

Cc1nccc2c1[nH]c1cc(O)ccc12 [HARMOL HYDROCHLORIDE]
61.4 µM: HCT-15
inactive: U-251 > 100 µM | KM-20L2 > 100 µM | KM12 55.8 µM | SK-OV-3 > 100 µM | HOP-92 27.5 µM | K562 37.1 µM | HCC 2998 91 µM | SK-MEL-2 > 100 µM | Malme-3M 44.7 µM | HL-60 29 µM | UO-31 37.6 µM | SF-539 73.3 µM | SK-MEL-5 69.2 µM | COLO 205 > 100 µM | M19-MEL > 100 µM | CCRF-CEM 38.5 µM | SF-295 33 µM | UACC-62 96.6 µM | SNB-75 33 µM | HT-29 56.5 µM | RXF 631 > 100 µM | RXF 393 > 100 µM | 786-0 55.2 µM | A498 63.4 µM | OVCAR-8 49.2 µM | DMS-114 70.3 µM | SNB-19 > 100 µM | OVCAR-5 68.2 µM | M14 > 100 µM | XF498 28.4 µM | NCI-H23 76.7 µM | OVCAR-3 42.5 µM | HCT-116 41.5 µM | RPMI-8226 44.5 µM | LXFL 529 > 100 µM | MOLT-4 23.7 µM | A549 44.8 µM | SN12C 76.4 µM | DMS-273 54.5 µM | DLD-1 51.1 µM | CAKI-1 41.1 µM | SF-268 > 100 µM | SK-MEL-28 > 100 µM | HOP-62 91.6 µM | ACHN 31.8 µM | SNB-78 > 100 µM | NCI-H226 96.6 µM | LOX IMVI 45.6 µM | OVCAR-4 > 100 µM | UACC-257 82.4 µM | NCI-H460 37.4 µM | EKVX 68.2 µM | IGROV-1 45.8 µM | TK-10 > 100 µM | SW-620 39.1 µM | HOP-18 38 µM
